For 53 molecules, IC50 and IC90 results are on record in ChEMBL document CHEMBL4483862, “Open-source discovery of chemical leads for next-generation chemoprotective antimalarials” (2018).

Each structure is given as a SMILES string. Bounds are passed on as bounds.

This experiment relates to Plasmodium berghei. The experiment can be described thus: Luciferase/luciferin-expressing antifolate-resistant parasites were used to infect a culture of HepG2 cells that were pre-incubated with compounds. Infected hepatocytes emit light due to the luciferase reaction. Assay results are presented as the percent inhibition of light emission compared to control. […]. The note with it: sporozoite; for IC50: read-out: LUCIFERASE INFECTION ASSAY - IC50; for IC90: read-out: LUCIFERASE INFECTION ASSAY - IC90. In kind it is functional.

In general, IC50 refers to the midpoint of a concentration-inhibition curve. Broadly, the IC90 is the point of the concentration-response curve where the effect stands at 90%. For `CN1C=C/C(=C/c2ccc3ccccc3[n+]2C)c2ccccc21`, the IC50 is 1.06 µM and the IC90 is 5.18 µM.
With `CN(NS(=O)(=O)c1ccc(Cl)cc1)c1cnn(C)c(=O)c1Cl`, the IC50 was over 9.09 µM and the IC90 is over 9.09 µM.
For `Clc1ccc2c(c1)nnc1nnnn12`, the IC50 came out at 1.66 µM and the IC90 stood at 1.91 µM.
For `CN1/C(=C/C=C/c2ccc3ccccc3[n+]2C)C=Cc2ccccc21`, the IC50 was determined as 2.47 µM and the IC90 came to 2.78 µM.
Taken in the same sequence, the figures for `N/C(CC(=O)Nc1ccc(F)cc1F)=N\O` were over 14.4 µM and over 14.4 µM.
The matching figures for `CN(/N=C/c1cc(Cl)cc(Cl)c1O)C(=S)NC(C)(C)C`: over 9.87 µM and over 9.87 µM.
As for `Cc1ccc(-n2c(-c3ccc(Cl)c(C)c3)csc2=N)c(C)c1`, the IC50 was over 9.03 µM and the IC90 was over 9.03 µM.
Take `Nc1nc(-c2ccc(OCc3ccc(F)cc3)cc2)cs1`: the IC50 was over 8.66 µM and the IC90 was over 8.66 µM.
On to `Cc1ccc(C(C=CC(C#N)C#N)=Nc2ccc(Cl)cc2)cc1`, for which the IC50 is over 10.3 µM and the IC90 is over 10.3 µM.
`O=[N+]([O-])c1cc(Cl)ccc1Oc1c(Cl)cccc1Cl`: the IC50 is over 10.4 µM and the IC90 is over 10.4 µM.
Regarding `Cc1cc(C)c(O)c(/C=N/NC(=S)NC(C)(C)C)c1`, the IC50 is over 11.8 µM and the IC90 is over 11.8 µM.
On to `COc1ccccc1Oc1ccc(C(F)(F)F)cc1NC(=O)c1sc2ccccc2c1Cl`, for which the IC50 was over 6.91 µM and the IC90 is over 6.91 µM.
Consider `Brc1ccc(-c2cc(-c3ccccc3)cc(-c3ccccc3)n2)cc1`, for which the IC50 was over 8.54 µM and the concentration for an effect of 90% (IC90) was over 8.54 µM.
Turning to `COc1c(Cl)cc(Cl)c(OC)c1C(=O)NC(=O)Nc1cc(C(F)(F)F)cc(C(F)(F)F)c1`, the IC50 was determined as 2.06 µM and the 90% effect concentration (IC90) turned out to be 2.23 µM.
`O=C(Nc1ccc(F)c(Cl)c1)c1ccc(F)c(Cl)c1`: the IC50 is over 10.9 µM and the IC90 is over 10.9 µM.
On to `CCOC(=O)c1c[nH]c2cc(Cl)cc(Cl)c2c1=O`, for which the IC50 was over 11.5 µM and the IC90 was over 11.5 µM.
With `CCOC(=O)C1=C(C)N(S(=O)(=O)c2ccc(C)cc2)C(SC)=NC1c1ccccc1` (stereo unspecified), the IC50 is over 7.42 µM and the IC90 was over 7.42 µM.
With `CC(C)(C)c1ccc(C(=O)N/N=C/c2cc(Cl)cc(Cl)c2O)cc1`, the IC50 was over 9.03 µM and the 90% effect concentration (IC90) is over 9.03 µM.
As for `O=C(NNC(=S)Nc1cc(C(F)(F)F)cc(C(F)(F)F)c1)c1cccnc1Oc1ccccc1`, the IC50 was over 6.59 µM and the IC90 is over 6.59 µM.
For `Cc1ccc(S(=O)(=O)Oc2ccc(Cl)cc2Sc2cc(Cl)ccc2OS(=O)(=O)c2ccc(C)cc2)cc1`, the 50% inhibitory concentration (IC50) was over 5.54 µM and the IC90 was over 5.54 µM.
As to `O=C(Cc1cccs1)Nc1ccc(Cl)c(C(F)(F)F)c1`, the IC50 is over 10 µM and the IC90 is over 10 µM.
With `Cc1cc(Oc2ccc(C(F)(F)F)cc2N=CC(C#N)C#N)cc(C)c1Cl`, the IC50 was over 8.42 µM and the IC90 was over 8.42 µM.
For `CCOC(=O)c1c[nH]c2c(F)cc(F)cc2c1=O`, the IC50 was over 13 µM and the IC90 was over 13 µM.
In the case of `CC(C)(C)NC(=S)N/N=C/c1c(O)ccc2ccccc12`, the IC50 was 2.97 µM and the IC90 turned out to be 6.74 µM.
For the molecule `CCn1c2ccc(Cl)cc2c2cc(Cl)ccc21`, the IC50 is over 12.5 µM and the IC90 is over 12.5 µM.
As for `Nc1cc(C(F)(F)F)ccc1Oc1ccc(Cl)cc1Cl`, the IC50 is over 10.2 µM and the IC90 was over 10.2 µM.
As to `Cc1ccc(SCc2ccccc2C(=O)Nc2cc(Cl)ccc2O)cc1`, the IC50 is over 8.6 µM and the IC90 was over 8.6 µM.
With `CC(C)(C)NC(=S)Nc1cc(C(F)(F)F)c(Cl)cc1Cl`, the IC50 was over 9.56 µM and the IC90 is over 9.56 µM.
As to `Cc1nn(-c2ccccc2)nc1C(=O)NNC(=S)Nc1ccc(Cl)cc1`, the IC50 was over 8.53 µM and the IC90 was over 8.53 µM.
On to `FC(F)(F)c1ccc2nc(SCc3c(Cl)cccc3Cl)[nH]c2c1`, for which the IC50 was over 7.98 µM and the IC90 is over 7.98 µM.
`Cc1ccc(S(=O)(=O)c2ccc(-c3ccccc3)cc2)cc1`: the IC50 is over 10.7 µM and the IC90 was over 10.7 µM.
For the molecule `CCCCn1c(CSc2ccccn2)cn(-c2nnc(C(C)(C)C)s2)c1=O`, the IC50 was over 8.18 µM and the IC90 was over 8.18 µM.
With `Cc1cc(Cl)cc(/C=N/NC(=S)NC(C)(C)C)c1O`, the IC50 came out at 3.66 µM and the IC90 is 3.97 µM.
The matching figures for `O=c1cc(O)c2c(=O)n3c4c(cccc4c2o1)CCC3`: over 12.3 µM and over 12.3 µM.
Regarding `CCC(C)NC(=S)N/N=C/c1cc(Cl)cc(Cl)c1O` (stereo unspecified), the IC50 was over 10.3 µM and the IC90 is over 10.3 µM.
As to `COc1ccc2c(c1)nnc1nnc(SCC(=O)N3CCOCC3)n12`, the IC50 is over 9.16 µM and the IC90 is over 9.16 µM.
In the case of `CC1CN(S(=O)(=O)c2cc(Cl)c(Oc3ccc([N+](=O)[O-])cc3Cl)c(Cl)c2)CC(C)O1` (stereo unspecified), the IC50 was over 6.66 µM and the IC90 was over 6.66 µM.
As for `CCCCCCCOc1ccc(C(=O)CCC(=O)O)cc1`, the IC50 is over 11.3 µM and the 90% effect concentration (IC90) is over 11.3 µM.
Take `O=S(=O)(Oc1cccc2[nH]ccc12)c1ccc(Cl)cc1Cl`: the IC50 was over 9.64 µM and the IC90 is over 9.64 µM.
As for `Cc1cc(NC(=S)NNC(=O)c2cccnc2Oc2ccccc2)ccc1Br`, the IC50 is over 7.22 µM and the IC90 was over 7.22 µM.
As to `C/C(=N\NC(=S)NCC(C)(C)C)c1cc(F)ccc1O`, the IC50 is over 11.1 µM and the 90% effect concentration (IC90) is over 11.1 µM.
As for `O=C(NNC(=S)Nc1ccc(Cl)c(Cl)c1)c1cccnc1Oc1ccccc1`, the IC50 was over 7.62 µM and the IC90 is over 7.62 µM.
Take `Cc1cc(Oc2ccc(C(F)(F)F)cc2NS(=O)(=O)c2cc(C(F)(F)F)cc(C(F)(F)F)c2)cc(C)c1Cl`: the IC50 is over 5.58 µM and the 90% effect concentration (IC90) is over 5.58 µM.
Turning to `Cc1[nH]c(=O)c(C#N)cc1C(=O)CSc1ccc(C(C)(C)C)cc1`, the half-maximal inhibitory concentration (IC50) is over 9.69 µM and the IC90 was over 9.69 µM.
Regarding `CCOC(=O)c1cnc2cc(Cl)c(F)cc2c1Sc1ccc(Cl)cc1`, the IC50 is over 8.33 µM and the IC90 is over 8.33 µM.
Regarding `O=C(Nc1ccc(F)c(Cl)c1)c1cc2ccccc2s1`, the IC50 was over 10.8 µM and the IC90 is over 10.8 µM.
As for `O=C(On1c(-c2ccccc2)nc2ccccc2c1=O)c1ccc(F)cc1`, the IC50 was over 9.16 µM and the IC90 is over 9.16 µM.
In the case of `CC(C)(C)NC(=S)N/N=C/c1cccc(O)c1O`, the half-maximal inhibitory concentration (IC50) is over 12.3 µM and the IC90 was over 12.3 µM.
Take `O=[N+]([O-])c1ccc(OCc2ccccc2)c(Cl)c1`: the IC50 is over 12.5 µM and the IC90 was over 12.5 µM.
Take `CCOC(=O)c1cnc2cc(Cl)c(F)cc2c1N1CCOCC1`: the IC50 is over 9.74 µM and the IC90 was over 9.74 µM.
As to `S=c1[nH]nc(-c2cccnc2Oc2ccccc2)n1-c1ccc(Cl)c(Cl)c1`, the IC50 was over 7.95 µM and the IC90 is over 7.95 µM.
For `Nn1cc(C(F)(F)F)cc(Cl)c1=[N+]1CCNCC1`, the IC50 is over 7.29 µM and the IC90 is over 7.29 µM.
Regarding `O=[N+]([O-])c1ccc(CSc2nc3cc(Cl)c(F)cc3[nH]2)cc1`, the IC50 is over 7.88 µM and the 90% effect concentration (IC90) is over 7.88 µM.
